Conditions: Liquid

CCCCC(CC)COC(=O)c1ccccc1C(=O)OCC(CC)CCCC (configuration not stated) [bis(2-ethylhexyl) 1,2-benzenedicarboxylate]
Conditions | vapor or sublimation pressure [kPa]
423.15 K | 0.008
433.15 K | 0.017
443.15 K | 0.0326
448.15 K | 0.0419
453.15 K | 0.0655
463.15 K | 0.1154
473.15 K | 0.1874
